This assay addresses T1, recombinant full-length USP7 (Homo sapiens, UniProt Q93009).
T1 construct: A 25 μl reaction volume containing recombinant full-length USP7 (62 pM)
The experiment in a line: USP7-mediated ubiquitin-rhodamine cleavage assay. To be noted: recombinant full-length USP7 62 pM; ubiquitin-rhodamine 100 nM; 30-minute pre-incubation, 1 hour reaction at room temperature; read-out: Potency (USP7 IC50). It counts as biochemical. In outline: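 Rhodamine fluorescence read-out after acetic acid stop; IC50 by 4-parameter nonlinear regression. Enzyme at 62 pM, substrate ubiquitin-rhodamine 100 nM final, 1 h at room temperature in the dark, after 30 min compound preincubation. Buffer: HEPES pH 7.3, NaCl, TCEP, BSA; 1% DMSO.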

SMILES strings stand for the structures.

T1 sequence (Q93009 whole entry): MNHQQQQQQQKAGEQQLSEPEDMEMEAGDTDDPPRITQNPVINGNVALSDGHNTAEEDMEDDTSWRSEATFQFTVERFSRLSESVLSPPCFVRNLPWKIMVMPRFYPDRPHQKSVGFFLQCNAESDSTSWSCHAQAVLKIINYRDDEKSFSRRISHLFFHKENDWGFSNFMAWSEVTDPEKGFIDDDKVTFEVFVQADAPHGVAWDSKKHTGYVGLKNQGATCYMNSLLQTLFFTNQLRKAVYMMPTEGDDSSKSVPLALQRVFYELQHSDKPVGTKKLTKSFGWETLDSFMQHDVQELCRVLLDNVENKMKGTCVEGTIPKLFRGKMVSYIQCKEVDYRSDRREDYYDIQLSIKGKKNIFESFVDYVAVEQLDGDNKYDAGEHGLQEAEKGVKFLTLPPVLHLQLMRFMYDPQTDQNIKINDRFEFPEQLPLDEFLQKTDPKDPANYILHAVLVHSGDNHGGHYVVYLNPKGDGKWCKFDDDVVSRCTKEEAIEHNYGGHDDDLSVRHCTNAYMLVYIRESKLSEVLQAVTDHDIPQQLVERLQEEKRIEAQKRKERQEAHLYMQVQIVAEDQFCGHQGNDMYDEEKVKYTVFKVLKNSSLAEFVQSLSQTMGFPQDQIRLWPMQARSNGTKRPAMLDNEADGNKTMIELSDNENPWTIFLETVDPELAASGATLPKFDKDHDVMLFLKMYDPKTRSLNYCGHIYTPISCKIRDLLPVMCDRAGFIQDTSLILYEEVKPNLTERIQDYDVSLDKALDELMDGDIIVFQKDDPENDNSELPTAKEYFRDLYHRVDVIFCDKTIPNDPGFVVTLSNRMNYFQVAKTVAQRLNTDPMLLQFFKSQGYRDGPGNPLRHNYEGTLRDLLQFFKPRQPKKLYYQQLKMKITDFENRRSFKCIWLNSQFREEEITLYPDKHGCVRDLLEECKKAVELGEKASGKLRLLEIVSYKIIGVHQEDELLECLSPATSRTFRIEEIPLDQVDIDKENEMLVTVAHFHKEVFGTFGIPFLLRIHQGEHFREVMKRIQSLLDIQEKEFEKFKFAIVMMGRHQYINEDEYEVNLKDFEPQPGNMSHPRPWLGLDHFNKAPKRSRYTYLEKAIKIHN

Turning to `Cc1cc(Cl)cc(-c2ccnc3cc(Cn4c(=O)ccn(CC(F)(F)F)c4=O)sc23)c1O[C@@H]1CN[C@@H](C)C1` [Example 632, 3-[[7-[5-chloro-3-methyl-2-[(3S,5S)-5-methylpyrrolidin-3-yl]oxy-phenyl]thieno[3,2-b]pyridin-2-yl]methyl]-1-(2,2,2-trifluoroethyl)pyrimidine-2,4-dione], the IC50 (in general, the point on the concentration scale where inhibition reaches its midpoint) was < 1 µM.

Consider `Cc1cc(Cl)cc(-c2ccnc3cc(Cn4c(=O)ccn(CC(F)(F)F)c4=O)sc23)c1O[C@@H]1CN[C@H](C)C1` [Example 633, 3-[[7-[5-chloro-3-methyl-2-[(3S,5R)-5-methylpyrrolidin-3-yl]oxy-phenyl]thieno[3,2-b]pyridin-2-yl]methyl]-1-(2,2,2-trifluoroethyl)pyrimidine-2,4-dione], for which the IC50 is < 1 µM.

For `Cc1cc(Cl)cc(-c2ccnc3cc(Cn4c(=O)ccn(CC(F)(F)F)c4=O)sc23)c1O[C@@H]1CN[C@H](C(C)(C)O)C1` [Example 634, 3-[[7-[5-chlloro-2-[(3S,5S)-5-(1-hydroxy-1-methyl-ethyl)pyrrolidin-3-yl]oxy-3-methyl-phenyl]thieno[3,2-b]pyridin-2-yl]methyl]-1-(2,2,2-trifluoroethyl)pyrimidine-2,4-dione], the IC50 was < 1 µM.

Consider `Cc1cc(Cl)cc(-c2ccnc3cc(Cn4c(=O)ccn(CC(F)(F)F)c4=O)sc23)c1O[C@@H]1CN[C@@H](C(C)(C)O)C1` [Example 635, 3-[[7-[5-chloro-2-[(3S,5R)-5-(1-hydroxy-1-methyl-ethyl)pyrrolidin-3-yl]oxy-3-methyl-phenyl]thieno[3,2-b]pyridin-2-yl]methyl]-1-(2,2,2-trifluoroethyl)pyrimidine-2,4-dione], for which the IC50 is < 1 µM.

On to `CC[C@@H]1C[C@H](Oc2c(C)cc(Cl)cc2-c2ccnc3cc(Cn4c(=O)ccn(CC(F)(F)F)c4=O)sc23)CCN1` [Example 636, 3-[[7-[5-chloro-2-[[(2R,4R)-2-ethyl-4-piperidyl]oxy]-3-methyl-phenyl]thieno[3,2-b]pyridin-2-yl]methyl]-1-(2,2,2-trifluoroethyl)pyrimidine-2,4-dione], for which the IC50 is < 1 µM.

In the case of `Cc1cc(Cl)cc(-c2ccnc3cc(Cn4c(=O)ccn(CC(F)(F)F)c4=O)sc23)c1O[C@@H]1C[C@@H]2C[C@H]1CN2` [Example 637, 3-[[7-[2-[[(1S,4S,5R)-2-azabicyclo[2.2.1]heptan-5-yl]oxy]-5-chloro-3-methyl-phenyl]thieno[3,2-b]pyridin-2-yl]methyl]-1-(2,2,2-trifluoroethyl)pyrimidine-2,4-dione; 2,2,2-trifluoroacetic acid], the IC50 is < 1 µM.

`Cc1cc(Cl)cc(-c2ccnc3cc(Cn4c(=O)ccn(CC(F)(F)F)c4=O)sc23)c1O[C@@H]1CCN(CC(F)(F)F)C[C@@H]1C` [Example 638, 3-[[7-[5-chloro-3-methyl-2-[[(3S,4R)-3-methyl-1-(2,2,2-trifluoroethyl)-4-piperidyl]oxy]phenyl]thieno[3,2-b]pyridin-2-yl]methyl]-1-(2,2,2-trifluoroethyl)pyrimidine-2,4-dione]: the IC50 is < 1 µM.

With `Cc1cc(Cl)cc(-c2ccnc3cc(Cn4c(=O)ccn(CC(F)(F)F)c4=O)sc23)c1OC1(C)CCCNC1` (centres unmarked) [Example 639, 3-[[7-[5-chloro-3-methyl-2-[(3-methyl-3-piperidyl)oxy]phenyl]thieno[3,2-b]pyridin-2-yl]methyl]-1-(2,2,2-trifluoroethyl)pyrimidine-2,4-dione], the IC50 was < 1 µM.

Regarding `Cc1cc(Cl)cc(-c2ccnc3cc(Cn4c(=O)ccn(CC(F)(F)F)c4=O)sc23)c1OC1(C)CC(N)C1` (centres unmarked) [Example 640, 3-[[7-[2-(3-amino-1-methyl-cyclobutoxy)-5-chloro-3-methyl-phenyl]thieno[3,2-b]pyridin-2-yl]methyl]-1-(2,2,2-trifluoroethyl)pyrimidine-2,4-dione], the IC50 is < 1 µM.

`Cc1cc(Cl)cc(-c2ccnc3cc(Cn4c(=O)ccn(CC(F)(F)F)c4=O)sc23)c1OCC1(F)CNC1` [Example 641, 3-[[7-[5-chloro-2-[(3-fluoroazetidin-3-yl)methoxy]-3-methyl-phenyl]thieno[3,2-b]pyridin-2-yl]methyl]-1-(2,2,2-trifluoroethyl)pyrimidine-2,4-dione]: the IC50 is < 1 µM.

As to `Cc1cc(Cl)cc(-c2ccnc3cc(Cn4c(=O)ccn(CC(F)(F)F)c4=O)sc23)c1O[C@@H]1CCN(CC(F)F)C[C@@H]1C` [Example 642, 3-[[7-[5-chloro-2-[[(3S,4R)-1-(2,2-difluoroethyl)-3-methyl-4-piperidyl]oxy]-3-methyl-phenyl]thieno[3,2-b]pyridin-2-yl]methyl]-1-(2,2,2-trifluoroethyl)pyrimidine-2,4-dione], the IC50 was < 1 µM.

`COC(=O)N1CC[C@@H](Oc2c(C)cc(Cl)cc2-c2ccnc3cc(Cn4c(=O)ccn(CC(F)(F)F)c4=O)sc23)[C@@H](C)C1` [Example 643, methyl (3S,4R)-4-[4-chloro-2-[2-[[2,6-dioxo-3-(2,2,2-trifluoroethyl)pyrimidin-1-yl]methyl]thieno[3,2-b]pyridin-7-yl]-6-methyl-phenoxy]-3-methyl-piperidine-1-carboxylate]: the IC50 was < 1 µM.

On to `Cc1cc(Cl)cc(-c2ccnc3cc(Cn4c(=O)ccn(CC(F)(F)F)c4=O)sc23)c1O[C@@H]1CN(C2CC(C(F)(F)F)C2)C[C@@H]1C` (stereo partly drawn) [Example 644, 3-[[7-[5-chloro-3-methyl-2-[(3S,4S)-4-methyl-1-[3-(trifluoromethyl)cyclobutyl]pyrrolidin-3-yl]oxy-phenyl]thieno[3,2-b]pyridin-2-yl]methyl]-1-(2,2,2-trifluoroethyl)pyrimidine-2,4-dione], for which the IC50 is < 1 µM.

As for `COCCN1C[C@H](C)[C@H](Oc2c(C)cc(Cl)cc2-c2ccnc3cc(Cn4c(=O)ccn(CC(F)(F)F)c4=O)sc23)C1` [Example 645, 3-[[7-[5-chloro-2-[(3S,4S)-1-(2-methoxyethyl)-4-methyl-pyrrolidin-3-yl]oxy-3-methyl-phenyl]thieno[3,2-b]pyridin-2-yl]methyl]-1-(2,2,2-trifluoroethyl)pyrimidine-2,4-dione], the IC50 was < 1 µM.

`Cc1cc(Cl)cc(-c2ccnc3cc(Cn4c(=O)ccn(CC(F)(F)F)c4=O)sc23)c1OCC1COCCN1` (centres unmarked) [Example 646, 3-[[7-[5-chloro-3-methyl-2-(morpholin-3-ylmethoxy)phenyl]thieno[3,2-b]pyridin-2-yl]methyl]-1-(2,2,2-trifluoroethyl)pyrimidine-2,4-dione; 2,2,2-trifluoroacetic acid]: the IC50 was < 1 µM.

Take `COC[C@@H]1C[C@H](Oc2c(C)cc(Cl)cc2-c2ccnc3cc(Cn4c(=O)ccn(CC(F)(F)F)c4=O)sc23)CN1` [Example 647, 3-[[7-[5-chloro-2-[(3S,5S)-5-(methoxymethyl)pyrrolidin-3-yl]oxy-3-methyl-phenyl]thieno[3,2-b]pyridin-2-yl]methyl]-1-(2,2,2-trifluoroethyl)pyrimidine-2,4-dione]: the IC50 was < 1 µM.

Turning to `Cc1cc(Cl)cc(-c2ccnc3cc(Cn4c(=O)ccn(CC(F)(F)F)c4=O)sc23)c1O[C@@H]1CCN(Cc2cnoc2)C[C@@H]1C` [Example 648, 3-[[7-[5-chloro-2-[[(3S,4R)-1-(isoxazol-4-ylmethyl)-3-methyl-4-piperidyl]oxy]-3-methyl-phenyl]thieno[3,2-b]pyridin-2-yl]methyl]-1-(2,2,2-trifluoroethyl)pyrimidine-2,4-dione], the IC50 is < 1 µM.

Turning to `Cc1cc(Cl)cc(-c2ccnc3cc(CN4C(=O)CN(CC(F)(F)F)C4=O)sc23)c1OC1CCNCC1` [Example 649, 3-[[7-[5-chloro-3-methyl-2-(4-piperidyloxy)phenyl]thieno[3,2-b]pyridin-2-yl]methyl]-1-(2,2,2-trifluoroethyl)imidazolidine-2,4-dione; 2,2,2-trifluoroacetic acid], the IC50 is < 1 µM.

Consider `COC[C@H]1C[C@H](Oc2c(C)cc(Cl)cc2-c2ccnc3cc(Cn4c(=O)ccn(CC(F)(F)F)c4=O)sc23)CN1` [Example 650, 3-[[7-[5-chloro-2-[(3S,5R)-5-(methoxymethyl)pyrrolidin-3-yl]oxy-3-methyl-phenyl]thieno[3,2-b]pyridin-2-yl]methyl]-1-(2,2,2-trifluoroethyl)pyrimidine-2,4-dione], for which the IC50 is < 1 µM.

In the case of `Cc1cc(Cl)cc(-c2ccnc3cc(Cn4c(=O)ccn(CC(F)(F)F)c4=O)sc23)c1OCC1CNCCO1` (centres unmarked) [Example 651, 3-[[7-[5-chloro-3-methyl-2-(morpholin-2-ylmethoxy)phenyl]thieno[3,2-b]pyridin-2-yl]methyl]-1-(2,2,2-trifluoroethyl)pyrimidine-2,4-dione; 2,2,2-trifluoroacetic acid], the IC50 is < 1 µM.

As for `COC(=O)[C@@H]1C[C@H](Oc2c(C)cc(Cl)cc2-c2ccnc3cc(Cn4c(=O)ccn(CC(F)(F)F)c4=O)sc23)CN1` [Example 652, methyl (2S,4S)-4-[4-chloro-2-[2-[[2,6-dioxo-3-(2,2,2-trifluoroethyl)pyrimidin-1-yl]methyl]thieno[3,2-b]pyridin-7-yl]-6-methyl-phenoxy]pyrrolidine-2-carboxylate], the IC50 is < 1 µM.

Consider `COC(=O)[C@H]1C[C@H](Oc2c(C)cc(Cl)cc2-c2ccnc3cc(Cn4c(=O)ccn(CC(F)(F)F)c4=O)sc23)CN1` [Example 653, methyl (2R,4S)-4-[4-chloro-2-[2-[[2,6-dioxo-3-(2,2,2-trifluoroethyl)pyrimidin-1-yl]methyl]thieno[3,2-b]pyridin-7-yl]-6-methyl-phenoxy]pyrrolidine-2-carboxylate], for which the IC50 was < 1 µM.

As to `COCCN1CC[C@@H](Oc2c(C)cc(Cl)cc2-c2ccnc3cc(Cn4c(=O)ccn(CC(F)(F)F)c4=O)sc23)[C@H](C)C1` [Example 654, 3-[[7-[5-chloro-2-[[(3R,4R)-1-(2-methoxyethyl)-3-methyl-4-piperidyl]oxy]-3-methyl-phenyl]thieno[3,2-b]pyridin-2-yl]methyl]-1-(2,2,2-trifluoroethyl)pyrimidine-2,4-dione], the IC50 is < 1 µM.

Source of the values: patent publication US10722514B2 (FLX Bio, Inc., priority 2017, dated 2020).
